“And” between values parts separate entries of the source, which are not always exact repeats. Equal entries are not always repeated.
Key:
[1] = system: HuCCT1 cells (c-fos mRNA); assay: in vitro c-fos mRNA expression by quantitative RT-PCR; assay type: cell-based, human; conditions: for c-fos levels with time compared to baseline: 24-hour exposure
Method: (§1) Five cell lines were used: A431, Cal27, HN11, HuCCT1, and Hep2. HN11 was a gift from Dr David Sidranski's laboratory at Johns Hopkins University (Baltimore, Md.), and A431, Cal27, HuCCT1, and Hep2 were obtained from the American Tissue Culture Collection (Manassas, Va.). A431 is a squamous cell carcinoma, Cal27, HN11 and Hep2 are derived from head and neck squamous carcinomas, and HuCCT1 is a cholangiocarcinoma. The cell lines were grown in 6-well plates with DMEM supplemented with 10% fetal bovine serum (FBS) and penicillin/streptomycin. […] The cells were incubated for 1 hour, media was aspirated, and RNA collected by direct in-well lysis with 0.5 mL of RLT (Qiagen). […] IN VITRO GROWTH INHIBITION STUDIES
(§2) In vitro RNA extraction was performed on non-confluent cells after treatment. Wells were washed with PBS and RLT lysis buffer was added. Two passes from the FNA were put in lysis buffer (Mini Rneasy manufactured by Qiagen) loaded onto a column, washed and eluted into 50 μl TE pH8. Total RNA was extracted using the RNeasy™ Mini Kit (Qiagen, Valencia, Calif.). RNA was transcribed into cDNA by reverse transcription by priming with random hexamers (M-MLTV manufactured by Promega located in Madison, Wis.). The excess hexamers were removed using a column-based clean-up kit (Qiagen).
(§3) Quantitative PCR was performed on an MX3000p thermal cycler (Stratagene) using SYBR green dye method to track the progress of the reactions with ROX dye added as reference. Beta-Globin DNA specific primers were used to test DNA contamination for each sample type. Three housekeeping genes (HPRT, UBC and SDHA) were run in parallel with test genes. The amount of change in the target gene between the control and experimental conditions was found by comparing the threshold cycle (Ct) of the target gene to the geometric mean of the threshold cycles of the housekeeping genes. The geometric mean of the Cts of each of the housekeeping genes, and a change in threshold cycle (delta Ct), between conditions were calculated (dCtHouskeeping=(CtHPRT*CtUBC*CtSDHA)control−(CtHPRT*CtUBC*CtSDHA)exp). The change in threshold cycle for the target gene was calculated directly from Ct under each condition (dCttarget=(Cttarget)control−(Cttarget)exp). The efficiency of the […] raised to its dCt gave a ratio between the control and experimental conditions normalized to the housekeeping genes (Ratio=ETarget^dCtTarget/EHousekeeping^dctHousekeeping, where E=Primer efficiency, and Ct=Threshold cycle).

Cal27 cells (c-fos mRNA) = assay: as above; assay type: cell-based, human; conditions: for c-fos after longer exposure: 24-hour exposure
Method: as §1, §2, §3

HN11 cells (c-fos mRNA) = assay: as above; assay type: cell-based, human; conditions: for c-fos after longer exposure: 24-hour exposure
Method: as §1, §2, §3

Hep2 cells (c-fos mRNA) = assay: as above; assay type: cell-based, human; conditions: for c-fos levels with time compared to baseline: 24-hour exposure
Method: as §1, §2, §3

A431 cells (c-fos mRNA) = assay: as above; assay type: cell-based, human
Method: Five cell lines were used: A431, Cal27, HN11, HuCCT1, and Hep2. […] The cell lines were grown in 6-well plates with DMEM supplemented with 10% fetal bovine serum (FBS) and penicillin/streptomycin. […] The cells were incubated for 1 hour, media was aspirated, and RNA collected by direct in-well lysis with 0.5 mL of RLT (Qiagen).
In vitro RNA extraction was performed on non-confluent cells after treatment. Wells were washed with PBS and RLT lysis buffer was added. […] Total RNA was extracted using the RNeasy™ Mini Kit (Qiagen, Valencia, Calif.). RNA was transcribed into cDNA by reverse transcription by priming with random hexamers (M-MLTV manufactured by Promega located in Madison, Wis.). The excess hexamers were removed using a column-based clean-up kit (Qiagen).
Quantitative PCR was performed on an MX3000p thermal cycler (Stratagene) using SYBR green dye method to track the progress of the reactions with ROX dye added as reference. Beta-Globin DNA specific primers were used to test DNA contamination for each sample type. […] The geometric mean of the Cts of each of the housekeeping genes, and a change in threshold cycle (delta Ct), between conditions were calculated (dCtHouskeeping=(CtHPRT*CtUBC*CtSDHA)control−(CtHPRT*CtUBC*CtSDHA)exp). The change in threshold cycle for the target gene was calculated directly from Ct under each condition (dCttarget=(Cttarget)control−(Cttarget)exp).

HN11 cells = assay type: cell-based, human; conditions: HN11 (EGF-inducible c-fos line); 0-10 μM, 72 hours, 10% FBS
Cal27 cells = assay type: cell-based, human; conditions: CAL27 (EGF-inducible c-fos line); 0-10 μM, 72 hours, 10% FBS
HN11 xenograft tumors = assay: in vivo growth inhibition and tumor c-fos, xenograft; set-up: species or system athymic nude mice
Method: (§4) Five groups of 14-16 six-week-old female athymic nude mice (Harlan, Ind., US) were used. 1.5-5×10^6 A431, CAL27, HN11, HuCCT1, and Hep2 cells were injected subcutaneously in each flank. […].
(§5) FNAs on mice were performed according to standard cytopathologic practice under inhaled general anesthesia (isofluorane) using 10 cc syringes and 25-gauge needles. During each FNA procedure the first pass was smeared onto glass slides and used for morphologic analysis, (DiffQuik™ and Papanicoloau), and the second and third passes for RNA extraction. Eighteen A431 tumors, fourteen CAL27 tumors, eighteen HN11 tumors, fourteen HuCCT1 tumors, and sixteen Hep2 tumors were tested. FNAs were performed at baseline and after 14 days of therapy for each of the tumors. Tumor biopsies on patients were performed following an ultrasonographic-guided, FNA-assisted methodology, with on-site cytopathologic assessment of tissue adequacy at baseline and after 28 days of therapy.
as §2, §3

Hep2 xenograft tumors = assay: as above; set-up: species or system athymic nude mice
Method: as §4, §5, §2, §3

CAL27 xenograft tumors = assay: as above; set-up: species or system athymic nude mice
Method: as §4, §5, §2, §3

HuCCT1 cells = assay: cells; assay type: cell-based; conditions: Homo sapiens, HuCCT-1, MTT, 72 hours, 10% FBS, read-out: IC50 growth inhibition
[2] = system: CAL27 xenograft tumors (c-fos mRNA); assay: ex vivo molecular assay (c-fos) on FNA material; assay type: cell-based, mice; conditions: FNA material from seven CAL27 xenograft tumors; with EGF, 30 to 60 minutes
Method: as §5
In vitro RNA extraction was performed on non-confluent cells after treatment. […]
(§6) Quantitative PCR was performed on an MX3000p thermal cycler (Stratagene) using SYBR green dye method to track the progress of the reactions with ROX dye added as reference. […] The geometric mean of the Cts of each of the housekeeping genes, and a change in threshold cycle (delta Ct), between conditions were calculated (dCtHouskeeping=(CtHPRT*CtUBC*CtSDHA)control−(CtHPRT*CtUBC*CtSDHA)exp). The change in threshold cycle for the target gene was calculated directly from Ct under each condition (dCttarget=(Cttarget)control−(Cttarget)exp). […]

Hep2 cells = assay: cells; assay type: cell-based; conditions: Homo sapiens, HEp-2, MTT, 72 hours, 10% FBS, read-out: IC50 growth inhibition
[3] = system: Ki67 proliferation index in patient tumor samples; assay: Ki67 proliferation index in paired patient tumor samples (immunohistochemistry); assay type: in vivo, patients; conditions: patient #3; 500 mg/day (FIG. 7 legend)
Method: FNAs on mice were performed according to standard cytopathologic practice under inhaled general anesthesia (isofluorane) using 10 cc syringes and 25-gauge needles. During each FNA procedure the first pass was smeared onto glass slides and used for morphologic analysis, (DiffQuik™ and Papanicoloau), and the second and third passes for RNA extraction. […] FNAs were performed at baseline and after 14 days of therapy for each of the tumors. Tumor biopsies on patients were performed following an ultrasonographic-guided, FNA-assisted methodology, with on-site cytopathologic assessment of tissue adequacy at baseline and after 28 days of therapy.
Core biopsies from patients were processed using standard procedures (formalin-fixed, and paraffin embedded). Five-micron sections were used for Ki67 staining that was performed following the manufacturer's instructions (M7187 manufactured by DAKO located in Carpinteria, Calif.).

A431 xenograft tumors = assay: in vivo growth inhibition and tumor c-fos, xenograft; set-up: species or system athymic nude mice
Method: as §4, §5, §2, §3

HuCCT1 xenograft tumors = assay: as above; set-up: species or system athymic nude mice
Method: as §4, §5, §2, §3

[4] = system: metastatic or inoperable malignancy; assay: clinical response of patients treated with gefitinib; assay type: in vivo; conditions: five patients; 500 mg daily; 2, 4, 2, 2 and 5+ 1-month cycles
Source text: Patients were required to be 18 years of age or older, and have histologically documented metastatic or inoperable malignancy amenable to sequential biopsies, and for which there was no known curative or standard palliative regimen (or failure of such regimens have occurred). […] The scientific review board of our institution granted protocol approval and patients were required to provide written informed consent prior to enrollment into the study.

[5] = system: c-fos in patient tumor samples; assay: c-fos in paired patient tumor samples; assay type: in vivo, patients
Method: as §5, with “therapy. […]” for “therapy.”
as §6

[6] = EGF 100 ng/mL, normalized to media
[7] = 50 mgr/kg IP once a day for 14 days
[8] = day 14 treated vs control, P<0.05
[9] = 10 μM, 1-hour exposure, with EGF
[10] = 100 mgr/kg IP once a day for 14 days

## EGF: human epidermal growth factor 100 ng/mL (EGF; Sigma), EGFR ligand used as stimulus
[1]; [6]
  c-fos increase upon exposure to EGF: 3.6 fold
Cal27 cells (c-fos mRNA); [6]
  c-fos mRNA level after brief exposure to EGF: 151 fold
HN11 cells (c-fos mRNA); [6]
  c-fos mRNA level after brief exposure to EGF: 86 fold
Hep2 cells (c-fos mRNA); [6]
  c-fos increase upon exposure to EGF: 4.1 fold
A431 cells (c-fos mRNA); [6]
  c-fos mRNA level after brief exposure to EGF: 126 fold

## C#Cc1cccc(Nc2ncnc3cc(OCCOC)c(OCCOC)cc23)c1 [erlotinib]
HN11 cells
  in vitro sensitivity (growth inhibition, MTT): high
Cal27 cells
  in vitro sensitivity (growth inhibition, MTT): high
[1]
  c-fos levels with time compared to baseline: minimally increased
Cal27 cells (c-fos mRNA)
  c-fos after longer exposure: lasting c-fos downregulation
HN11 cells (c-fos mRNA)
  c-fos after longer exposure: lasting c-fos downregulation
Hep2 cells (c-fos mRNA)
  c-fos levels with time compared to baseline: minimally increased
HN11 xenograft tumors; [7]
  tumor growth: growth arrest
HN11 xenograft tumors; [8]
  effect on progressive increase in tumor c-fos expression: significantly abrogate
Hep2 xenograft tumors; [7]
  tumor growth response: no response
Hep2 xenograft tumors; 14 days of therapy
  tumor c-fos levels: unchanged
CAL27 xenograft tumors; [7]
  tumor growth: growth arrest
CAL27 xenograft tumors; day 14 treated vs control, P=0.07
  effect on progressive increase in tumor c-fos expression: significantly abrogate
A431 cells (c-fos mRNA); 24-hour exposure
  c-fos after longer exposure: lasting c-fos downregulation
HuCCT1 cells
  IC50: > 10 µM
[2]
  effect on EGF-induced c-fos upregulation: abrogation of this response
Hep2 cells
  IC50: > 10 µM

## COc1cc2ncnc(Nc3ccc(F)c(Cl)c3)c2cc1OCCCN1CCOCC1 [gefitinib]
[3]
  reduction of Ki67: 45%
[1]
  c-fos levels with time compared to baseline: minimally increased
[1]; without EGF, 1 hour
  effect of drug alone on c-fos levels: no effect
Cal27 cells (c-fos mRNA); [9]
  effect on EGF-induced c-fos increment: abrogated
Cal27 cells (c-fos mRNA)
  c-fos after longer exposure: lasting c-fos downregulation
Cal27 cells (c-fos mRNA); without EGF, 1 hour
  effect of drug alone on c-fos levels: decreased c-fos levels
HN11 cells (c-fos mRNA); [9]
  effect on EGF-induced c-fos increment: abrogated
HN11 cells (c-fos mRNA)
  c-fos after longer exposure: lasting c-fos downregulation
HN11 cells (c-fos mRNA); without EGF, 1 hour
  effect of drug alone on c-fos levels: decreased c-fos levels
Hep2 cells (c-fos mRNA)
  c-fos levels with time compared to baseline: minimally increased
Hep2 cells (c-fos mRNA); without EGF, 1 hour
  effect of drug alone on c-fos levels: no effect
A431 xenograft tumors; [10]
  tumor growth: growth arrest
A431 xenograft tumors; [8]
  effect on progressive increase in tumor c-fos expression: significantly abrogate
HuCCT1 xenograft tumors; [10]
  tumor growth response: no response
HuCCT1 xenograft tumors; 14 days of therapy
  tumor c-fos levels: unchanged
[4]
  objective response: No objective, confirmed responses
[5]; patient #3, 500 mg/day (FIG. 7 legend)
  change in c-fos: increase
[5]; two patients with decrease, 500 mg daily
  tumor c-fos after 28 days, of baseline values: 56% and 37%

Source: patent US20060188895A1, “Rapid prognostic assay for malignancies treated with epidermal growth factor receptor” (The Johns Hopkins University, priority 2004, published 2006)
